Measured values reported in patent US20230248834A1, “DEGRADATION OF (EGFR) BY CONJUGATION OF EGFR INHIBITORS WITH E3 LIGASE LIGAND AND METHODS OF USE” (BEIGENE, LTD., priority 2020, published 2023).

Target: T1, EGFR L858R/T790M/C797S (Homo sapiens, UniProt P00533, C797S/L858R/T790M)
T1 construct: expressed in transfected cells; host or cells: BaF3-LTC
Experiment: EGFR degradation HTRF assay in BaF3-LTC cells
Format: cell-based
Conditions: BaF3-LTC (L858R/T790M/C797S), maximum percentage of inhibition (degradation); read-out: BaF3-LTC Dmax (%)
Experimental: BaF3-LTC(L858R/T790M/C797S) cells and BaF3 LC(L858R/C797S) cells are treated with compounds diluted in 0.2% DMSO cell culture medium and incubate for 16 h, 37° C., 5% CO2. the final concentration of compounds in all assay is start with 10 uM, 5-fold dilution, total 8 doses were included.
After 16 h treatment, add HTRF lysis buffer to each well; seal the plate and incubate 1 hour at room temperature on a plate shaker; Once the cells are lysed, 16 μL of cell lysate are transferred to a PE 384-well HTRF detection plate; 4 μL of pre-mixed HTRF antibodies are added to each well; Cover the plate with a plate sealer, spin 1000 rpm for 1 min, Incubate overnight at room temperature; Read on BMG PheraStar with HTRF protocol (337 nm-665 nm-620 nm).
The inhibition (degradation) percentage of the compound was calculated by the following equation: Inhibition percentage of Compound=100−100×(Signal−low control)/(High control−low control), wherein signal=each test compound group
High control=Cell group with added DMSO and without compound, indicating microplate readings without EGFR degradation;
Dmax is the maximum percentage of inhibition (degradation).
The IC50 (DC50) value of a compound can be obtained by fitting the following equation
Y=Bottom+(TOP−Bottom)/(1+((IC50/X)^hillslope))
Wherein, X and Y are known values, and IC50, Hillslope, Top and Bottom are the parameters obtained by fitting with software. Y is the inhibition percentage (calculated from the equation), X is the concentration of the compound; IC50 is the concentration of the compound when the 50% inhibition is reached. The smaller the IC50 value is, the stronger the inhibitory ability of the compound is. Vice versa, the higher the IC50 value is, the weaker the inhibitory ability of the compound is; Hillslope represents the slope of the fitted curve, generally around 1*; Bottom represents the minimum value of the curve obtained by data fitting, which is generally 0%±20%; Top represents the maximum value of the curve obtained by data fitting, which is generally 100%±20%. The experimental data were fitted by calculating and analyzing with Dotmatics data analysis software.

T1 sequence (P00533 25-1210 T790M/C797S/L858R): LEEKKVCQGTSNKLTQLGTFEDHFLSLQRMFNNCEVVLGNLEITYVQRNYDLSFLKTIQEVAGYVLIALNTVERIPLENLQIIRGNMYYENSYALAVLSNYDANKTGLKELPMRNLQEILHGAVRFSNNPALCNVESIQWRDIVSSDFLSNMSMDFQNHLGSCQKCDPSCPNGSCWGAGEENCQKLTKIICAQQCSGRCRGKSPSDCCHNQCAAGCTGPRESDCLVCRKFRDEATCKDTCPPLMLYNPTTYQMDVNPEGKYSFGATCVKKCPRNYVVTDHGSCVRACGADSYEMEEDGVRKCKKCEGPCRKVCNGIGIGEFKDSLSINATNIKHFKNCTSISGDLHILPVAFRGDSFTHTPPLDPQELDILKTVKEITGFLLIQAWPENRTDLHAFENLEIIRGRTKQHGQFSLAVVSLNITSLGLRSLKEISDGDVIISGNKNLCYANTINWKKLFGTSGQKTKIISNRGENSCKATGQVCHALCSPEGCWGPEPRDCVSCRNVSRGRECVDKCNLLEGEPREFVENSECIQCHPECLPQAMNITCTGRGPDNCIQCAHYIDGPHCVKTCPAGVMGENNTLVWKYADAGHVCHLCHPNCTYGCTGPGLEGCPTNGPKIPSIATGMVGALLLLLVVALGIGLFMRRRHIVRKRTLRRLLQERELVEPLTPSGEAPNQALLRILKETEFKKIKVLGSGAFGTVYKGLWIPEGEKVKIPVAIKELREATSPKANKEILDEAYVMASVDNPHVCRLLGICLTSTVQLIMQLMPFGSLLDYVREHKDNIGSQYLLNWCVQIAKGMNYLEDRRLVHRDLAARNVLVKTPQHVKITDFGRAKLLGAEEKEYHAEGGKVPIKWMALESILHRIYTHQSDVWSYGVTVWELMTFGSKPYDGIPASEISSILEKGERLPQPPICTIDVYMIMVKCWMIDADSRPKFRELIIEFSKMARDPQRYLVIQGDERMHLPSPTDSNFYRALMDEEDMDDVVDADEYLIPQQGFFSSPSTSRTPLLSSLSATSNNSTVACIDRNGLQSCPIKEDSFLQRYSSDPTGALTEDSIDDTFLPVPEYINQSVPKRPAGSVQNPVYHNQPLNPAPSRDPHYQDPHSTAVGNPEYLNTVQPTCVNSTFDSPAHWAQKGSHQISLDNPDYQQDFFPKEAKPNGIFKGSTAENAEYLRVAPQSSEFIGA

| Dmax | SMILES |
| --- | --- |
| 80.3% | CCOc1cc(N2CCC(N3CCN(CCc4c(F)cc(F)c5c4oc(=O)n5C4CCC(=O)NC4=O)CC3)CC2)c(CC)cc1Nc1ncc(Br)c(Nc2ccc3nc(CC)ccc3c2P(C)(C)=O)n1 (stereo not shown) [Example 731, 3-(7-(2-(4-(1-(4-((5-bromo-4-((5-(dimethylphosphoryl)-2-ethylquinolin-6-yl)amino)pyrimidin-2-yl)amino)-5-ethoxy-2-ethylphenyl)piperidin-4-yl)piperazin-1-yl)ethyl)-4,6-difluoro-2-oxobenzo[d]oxazol-3(2H)-yl)piperidine-2,6-dione] |
| 88.7% | CCc1ccc2c(P(C)(C)=O)c(Nc3nc(Nc4cc(CC)c(N5CCC(C6CCN(CCc7cc(F)c([C@H]8CCC(=O)NC8=O)c(F)c7)CC6)CC5)cc4OC)ncc3Br)ccc2n1 [Example 745, (R)-3-(4-(2-(1′-(4-((5-bromo-4-((5-(dimethylphosphoryl)-2-ethylquinolin-6-yl)amino)pyrimidin-2-yl)amino)-2-ethyl-5-methoxyphenyl)-[4,4′-bipiperidin]-1-yl)ethyl)-2,6-difluorophenyl)piperidine-2,6-dione] |
| 95.3% | CCOc1cc(N2CCC(N3CCN(CCc4cc(F)c([C@H]5CCC(=O)NC5=O)c(F)c4)CC3)CC2)c(CC)cc1Nc1ncc(Br)c(Nc2ccc3nc(C)c(F)cc3c2P(C)(C)=O)n1 [Example 728, (R)-3-(4-(2-(4-(1-(4-((5-bromo-4-((5-(dimethylphosphoryl)-3-fluoro-2-methylquinolin-6-yl)amino)pyrimidin-2-yl)amino)-5-ethoxy-2-ethylphenyl)piperidin-4-yl)piperazin-1-yl)ethyl)-2,6-difluorophenyl)piperidine-2,6-dione] |
| 95.6% | CCOc1cc(N2CCC(N3CCN(CC4CN(c5cc(F)c([C@H]6CCC(=O)NC6=O)c(F)c5)C4)CC3)CC2)c(CC)cc1Nc1ncc(Br)c(Nc2ccc3nc(CC)ccc3c2P(C)(C)=O)n1 [Example 541, (R)-3-(4-(3-((4-(1-(4-((5-bromo-4-((5-(dimethylphosphoryl)-2-ethylquinolin-6-yl)amino)pyrimidin-2-yl)amino)-5-ethoxy-2-ethylphenyl)piperidin-4-yl)piperazin-1-yl)methyl)azetidin-1-yl)-2,6-difluorophenyl)piperidine-2,6-dione] |
| 97.1% | COc1cc(N2CCC(N3CCN(C(=O)[C@H]4CN(c5cc(F)c([C@H]6CCC(=O)NC6=O)c(F)c5)CC4(C)C)CC3)CC2)c(C)cc1Nc1ncc(Br)c(Nc2ccc3nc(C)c(F)cc3c2P(C)(C)=O)n1 [Example 729, (R)-3-(4-((R)-4-(4-(1-(4-((5-bromo-4-((5-(dimethylphosphoryl)-3-fluoro-2-methylquinolin-6-yl)amino)pyrimidin-2-yl)amino)-5-methoxy-2-methylphenyl)piperidin-4-yl)piperazine-1-carbonyl)-3,3-dimethylpyrrolidin-1-yl)-2,6-difluorophenyl)piperidine-2,6-dione] |
| 93.6% | CCc1ncc2c(P(C)(C)=O)c(Nc3nc(Nc4cc(C)c(N5CCC(N6CCN(CCc7cc(F)c([C@H]8CCC(=O)NC8=O)c(F)c7)CC6)CC5)cc4OC)ncc3Br)ccc2n1 [Example 748, (R)-3-(4-(2-(4-(1-(4-((5-bromo-4-((5-(dimethylphosphoryl)-2-ethylquinazolin-6-yl)amino)pyrimidin-2-yl)amino)-5-methoxy-2-methylphenyl)piperidin-4-yl)piperazin-1-yl)ethyl)-2,6-difluorophenyl)piperidine-2,6-dione] |
| 92.3% | CCc1ccc2c(P(C)(C)=O)c(Nc3nc(Nc4cc(CC)c(N5CCC(N6CCN(CCc7cc(F)c([C@H]8CCC(=O)NC8=O)c(F)c7)CC6)CC5)cc4OC)ncc3Cl)ccc2n1 [Example 744, (R)-3-(4-(2-(4-(1-(4-((5-chloro-4-((5-(dimethylphosphoryl)-2-ethylquinolin-6-yl)amino)pyrimidin-2-yl)amino)-2-ethyl-5-methoxyphenyl)piperidin-4-yl)piperazin-1-yl)ethyl)-2,6-difluorophenyl)piperidine-2,6-dione] |
